# Experimental data taken from US12043632B2, “6-heteroaryloxy benzimidazoles and azabenzimidazoles as JAK2 inhibitors” (Ajax Therapeutics, Inc., priority 2020, dated 2024).
# Target: T1, JAK2 (JH1domain-catalytic, Y1007F,Y1008F) kinase (Homo sapiens, UniProt O60674, Y1007F/Y1008F)
# T1 construct: JAK2 (JH1domain-catalytic, Y1007F,Y1008F) kinase was expressed as N-terminal fusion; made in house; host or cells: transiently transfected HEK293 cells
# Assay: JAK2 JH1 Domain Binding Assay
# Settings: qPCR readout
# T1 sequence (O60674 849-1124 Y1007F/Y1008F limits assumed): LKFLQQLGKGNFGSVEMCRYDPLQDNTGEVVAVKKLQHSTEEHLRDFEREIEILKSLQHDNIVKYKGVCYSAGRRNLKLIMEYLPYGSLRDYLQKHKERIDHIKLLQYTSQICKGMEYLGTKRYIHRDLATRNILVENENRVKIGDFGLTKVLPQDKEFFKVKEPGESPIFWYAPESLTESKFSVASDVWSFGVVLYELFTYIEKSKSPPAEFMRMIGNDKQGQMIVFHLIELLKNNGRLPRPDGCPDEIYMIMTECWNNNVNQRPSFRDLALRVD
row,Compound,Kd [nM]
1,"CNc1cn2ncc(Oc3cnc4nc(Nc5cc([C@@H]6CCCN6C)cc(C(F)(F)F)c5)n(C)c4c3Cl)c2cn1 (single isomer, unassigned) [Example I-359-b]",50 to 1000
2,"COCCN1CCC(n2nc(Nc3nc4ncc(Oc5cnn6ccncc56)c(C(F)F)c4n3C)cc2C(C)(C)C)C1 (stereo in doubt) [Example I-52, (S)—N-(5-(tert-butyl)-1-(1-(2-methoxyethyl)pyrrolidin-3-yl)-1H-pyrazol-3-yl)-7-(difluoromethyl)-1-methyl-6-(pyrazolo[1,5-a]pyrazin-3-yloxy)-1H-imidazo[4,5-b]pyridin-2-amine]",10 to 50
3,"Cn1c(Nc2cc(C(F)(F)F)cn([C@H]3C[C@H](O)C3)c2=O)nc2ncc(Oc3cnn4ccncc34)c(Cl)c21 (stereo in doubt) [Example I-89, trans-3-((7-chloro-1-methyl-6-(pyrazolo[1,5-a]pyrazin-3-yloxy)-1H-imidazo[4,5-b]pyridin-2-yl)amino)-1-(3-hydroxycyclobutyl)-5-(trifluoromethyl)pyridin-2(1H)-one]",< 10
4,"Cn1c(Nc2ccc(CN3CCC(O)C3)c(C(F)(F)F)c2)nc2ncc(Oc3cnn4ccncc34)c(Cl)c21 (stereo in doubt) [Example I-185, (S)-1-(4-((7-chloro-1-methyl-6-(pyrazolo[1,5-a]pyrazin-3-yloxy)-1H-imidazo[4,5-b]pyridin-2-yl)amino)-2-(trifluoromethyl)benzyl)pyrrolidin-3-ol]",< 10
5,"Cn1c(Nc2ccc(CN3CCC(O)C3)c(C(F)(F)F)c2)nc2ncc(Oc3cnn4ccncc34)c(Cl)c21 (stereo in doubt) [Example I-186, (R)-1-(4-((7-chloro-1-methyl-6-(pyrazolo[1,5-a]pyrazin-3-yloxy)-1H-imidazo[4,5-b]pyridin-2-yl)amino)-2-(trifluoromethyl)benzyl)pyrrolidin-3-ol]",< 10
6,"Cn1c(Nc2cc(N3CCC(O)C3)cc(C(F)(F)F)c2)nc2ncc(Oc3cnn4ccncc34)c(Cl)c21 (stereo in doubt) [Example I-239, (S)-1-(3-((7-chloro-1-methyl-6-(pyrazolo[1,5-a]pyrazin-3-yloxy)-1H-imidazo[4,5-b]pyridin-2-yl)amino)-5-(trifluoromethyl)phenyl)pyrrolidin-3-ol]",< 10
7,"CN(C)C1CCN(Cc2cc(Nc3nc4ncc(Oc5cnn6ccncc56)c(Cl)c4n3C)cc(C(F)(F)F)c2)C1 (stereo in doubt) [Example I-272, (R)-7-chloro-N-(3-((3-(dimethylamino)pyrrolidin-1-yl)methyl)-5-(trifluoromethyl)phenyl)-1-methyl-6-(pyrazolo[1,5-a]pyrazin-3-yloxy)-1H-imidazo[4,5-b]pyridin-2-amine]",< 10
8,"Cn1c(Nc2cc(C(C)(C)C)n([C@@H]3CCOC3)n2)nc2ncc(Oc3cnc4[nH]c(C5CC5)cc4c3)cc21 [Example I-1, (R)—N-(5-(tert-butyl)-1-(tetrahydrofuran-3-yl)-1H-pyrazol-3-yl)-6-((2-cyclopropyl-1H-pyrrolo[2,3-b]pyridin-5-yl)oxy)-1-methyl-1H-imidazo[4,5-b]pyridin-2-amine]",10 to 50
9,"Cn1c(Nc2cc(C(C)(C)C)n([C@H]3CCOC3)n2)nc2ncc(Oc3cnc4[nH]c(C5CC5)cc4c3)cc21 [Example I-2, (S)—N-(5-(tert-butyl)-1-(tetrahydrofuran-3-yl)-1H-pyrazol-3-yl)-6-((2-cyclopropyl-1H-pyrrolo[2,3-b]pyridin-5-yl)oxy)-1-methyl-1H-imidazo[4,5-b]pyridin-2-amine]",10 to 50
10,Cc1n[nH]c2ncc(Oc3cnc4nc(Nc5cc(C(C)(C)C)n([C@@H]6CCOC6)n5)n(C)c4c3)cc12 [Example I-3],< 10
11,"Cc1n[nH]c2ncc(Oc3cnc4nc(Nc5cc(C(C)(C)C)n([C@H]6CCOC6)n5)n(C)c4c3)cc12 [Example I-4, (S)—N-(5-(tert-butyl)-1-(tetrahydrofuran-3-yl)-1H-pyrazol-3-yl)-1-methyl-6-((3-methyl-1H-pyrazolo[3,4-b]pyridin-5-yl)oxy)-1H-imidazo[4,5-b]pyridin-2-amine]",< 10
12,"Cc1cc2ncc(Oc3cnc4nc(Nc5cc(C(C)(C)C)n([C@@H]6CCOC6)n5)n(C)c4c3Cl)cn2n1 [Example I-5, (R)—N-(5-(tert-butyl)-1-(tetrahydrofuran-3-yl)-1H-pyrazol-3-yl)-7-chloro-1-methyl-6-((2-methylpyrazolo[1,5-a]pyrimidin-6-yl)oxy)-1H-imidazo[4,5-b]pyridin-2-amine]",10 to 50
13,"Cc1cc2ncc(Oc3cnc4nc(Nc5cc(C(C)(C)C)n([C@H]6CCOC6)n5)n(C)c4c3Cl)cn2n1 [Example I-6, (S)—N-(5-(tert-butyl)-1-(tetrahydrofuran-3-yl)-1H-pyrazol-3-yl)-7-chloro-1-methyl-6-((2-methylpyrazolo[1,5-a]pyrimidin-6-yl)oxy)-1H-imidazo[4,5-b]pyridin-2-amine]",10 to 50
14,"Cn1c(Nc2cc(C(F)(F)C(F)(F)F)n([C@@H]3CCOC3)n2)nc2ncc(Oc3cnc4ccnn4c3)c(Cl)c21 [Example I-7, (R)-7-chloro-1-methyl-N-(5-(perfluoroethyl)-1-(tetrahydrofuran-3-yl)-1H-pyrazol-3-yl)-6-(pyrazolo[1,5-a]pyrimidin-6-yloxy)-1H-imidazo[4,5-b]pyridin-2-amine]",10 to 50
15,"Cn1c(Nc2cc(C(F)(F)C(F)(F)F)n([C@H]3CCOC3)n2)nc2ncc(Oc3cnc4ccnn4c3)c(Cl)c21 [Example I-8, (S)-7-chloro-1-methyl-N-(5-(perfluoroethyl)-1-(tetrahydrofuran-3-yl)-1H-pyrazol-3-yl)-6-(pyrazolo[1,5-a]pyrimidin-6-yloxy)-1H-imidazo[4,5-b]pyridin-2-amine]",10 to 50
16,Cn1c(Nc2cc(C(C)(C)C)n([C@@H]3CCOC3)n2)nc2ncc(Oc3cnc4[nH]cc(C#N)c4c3)cc21 [Example I-9],50 to 1000
17,"Cn1c(Nc2cc(C(C)(C)C)n([C@H]3CCOC3)n2)nc2ncc(Oc3cnc4[nH]cc(C#N)c4c3)cc21 [Example I-10, (S)-5-((2-((5-(tert-butyl)-1-(tetrahydrofuran-3-yl)-1H-pyrazol-3-yl)amino)-1-methyl-1H-imidazo[4,5-b]pyridin-6-yl)oxy)-1H-pyrrolo[2,3-b]pyridine-3-carbonitrile]",1000 to 5000
18,COCc1c[nH]c2ncc(Oc3cnc4nc(Nc5cc(C(C)(C)C)n([C@@H]6CCOC6)n5)n(C)c4c3)cc12 [Example I-11],< 10
19,COCc1c[nH]c2ncc(Oc3cnc4nc(Nc5cc(C(C)(C)C)n([C@H]6CCOC6)n5)n(C)c4c3)cc12 [Example I-12],< 10
20,"Cn1c(Nc2cc(C(C)(C)C)n([C@H]3CCOC3)n2)nc2ncc(Oc3cnn4ccnc4c3)c(Cl)c21 [Example I-13, (S)—N-(5-(tert-butyl)-1-(tetrahydrofuran-3-yl)-1H-pyrazol-3-yl)-7-chloro-6-(imidazo[1,2-b]pyridazin-7-yloxy)-1-methyl-1H-imidazo[4,5-b]pyridin-2-amine]",10 to 50
21,"Cn1c(Nc2cc(C(C)(C)C)n([C@@H]3CCOC3)n2)nc2ncc(Oc3cnn4ccnc4c3)c(Cl)c21 [Example I-14, (R)—N-(5-(tert-butyl)-1-(tetrahydrofuran-3-yl)-1H-pyrazol-3-yl)-7-chloro-6-(imidazo[1,2-b]pyridazin-7-yloxy)-1-methyl-1H-imidazo[4,5-b]pyridin-2-amine]",10 to 50
